Reference: ChEMBL document CHEMBL1125506, “Fluoronaphthyridines as antibacterial agents. 6. Synthesis and structure-activity relationships of new chiral 7-(1-, 3-, 4-, and 6-methyl-2,5-diazabicyclo[2.2.1]heptan-2-yl)naphthyridine analogues of 7-[(1R,4R)-2,5- diazabicyclo[2.2.1]heptan-2-yl]-1-(1,1-dimethylethyl)-6-fluoro-1,4-dihy …” (J Med Chem, 1992)

Key:
[1] = test system: Morganella morganii; test: In vitro antibacterial activity against Morganella morganii A15153; assay type: functional
[2] = test system: Staphylococcus aureus; test: In vitro antibacterial activity against Staphylococcus aureus A9537; assay type: functional
[3] = test system: Enterobacter cloacae; test: In vitro antibacterial activity against Enterobacter cloacae A9656; assay type: functional
[4] = test system: Pseudomonas aeruginosa; test: In vitro antibacterial activity against Pseudomonas aeruginosa A9843; assay type: functional
[5] = test system: Escherichia coli; test: In vitro antibacterial activity against Escherichia coli A15119; assay type: functional
[6] = test system: Enterococcus faecalis; test: In vitro antibacterial activity against Enterococcus faecalis A9809; assay type: functional
[7] = test system: Serratia marcescens; test: In vitro antibacterial activity against Serratia marcescens A20019; assay type: functional
[8] = test system: Klebsiella pneumoniae; test: In vitro antibacterial activity against Klebsiella pneumoniae A9664; assay type: functional
[9] = test system: Bacteroides fragilis; test: In vitro antibacterial activity against Bacteroides fragilis A-22,862; assay type: functional
[10] = test system: Streptococcus pneumoniae; test: In vitro antibacterial activity against Streptococcus pneumoniae A9585.; assay type: functional
[11] = test system: Proteus mirabilis; test: In vitro antibacterial activity against Proteus mirabilis A9900; assay type: functional
[12] = Solubility (water, 22C, pH 7.2); assay type: physicochemical; conditions: read-out: S
[13] = Partition coefficient (logD); assay type: physicochemical; conditions: octanol/water
[14] = Peak concentration in blood after intravenous administration to mice; assay type: ADME, organism-based; design: route intravenous; conditions: mouse
[15] = test system: Mus musculus; test: Area under curve measured as conc vs time after peroral administration to mice.; assay type: ADME, organism-based; design: unit not given here; conditions: in vivo, po
[16] = percent urinary recovery in 24 hr after intravenous administration to mice; assay type: ADME, organism-based; conditions: mouse, urine, read-out: UR
[17] = test system: Mus musculus; test: Area under curve measured as conc vs time after intravenous administration to mice.; assay type: ADME, organism-based; design: unit not given here; conditions: in vivo
[18] = test system: Mus musculus; test: In vivo efficacy on systemic infections caused by Staphylococcus aureus A15090 in mice after peroral administration; assay type: functional; conditions: po, read-out: PD50
[19] = test system: Mus musculus; test: In vivo efficacy on systemic infections caused by Pseudomonas aeruginosa A9843 in mice after peroral administration; assay type: functional; conditions: po, read-out: PD50
[20] = Percent urinary recovery in 24 hr after peroral administration to mice; assay type: ADME, organism-based; conditions: mouse, urine, po; read-out: UR
[21] = test system: Mus musculus; test: In vivo efficacy on systemic infections caused by Pseudomonas aeruginosa A9843 in mice after intramuscular administration; assay type: functional; conditions: im, read-out: PD50
[22] = Peak concentration in blood after peroral administration to mice; assay type: ADME, organism-based; design: route oral; conditions: mouse, po
[23] = Plasma half-life after intravenous administration to mice; assay type: ADME, organism-based; conditions: mouse
[24] = Plasma half-life after peroral administration to mice; assay type: ADME, organism-based; conditions: mouse, po

Row | Structure (SMILES) | MIC [1] | MIC [2] | MIC [3] | MIC [4] | MIC [5] | MIC [6] | MIC [7] | MIC [8] | MIC [9] | MIC [10] | MIC [11] | solubility [12] | logD [13] | other results
1 | Cc1c(F)c(N2C[C@H]3C[C@@H]2[C@@H](C)N3)nc2c1c(=O)c(C(=O)O)cn2C1CC1.Cl | 0.25 µg/mL | 0.016 µg/mL | 0.06 µg/mL | 1 µg/mL | 0.016 µg/mL | 0.25 µg/mL | 0.5 µg/mL | 0.06 µg/mL | 8 µg/mL | 0.13 µg/mL | 0.25 µg/mL | 150 µg/mL | 0.71 | –
2 | C[C@H]1[C@H]2C[C@H](CN2)N1c1nc2c(cc1F)c(=O)c(C(=O)O)cn2C(C)(C)C.Cl | 1 µg/mL | 0.06 µg/mL | 0.13 µg/mL | 2 µg/mL | 0.03 µg/mL | 1 µg/mL | 0.25 µg/mL | 0.5 µg/mL | 8 µg/mL | 1 µg/mL | 1 µg/mL | 1330 µg/mL | -0.22 | Cmax [14]: 22000 ng/mL; AUC [15]: 17; dose excreted at 24 h [16]: 16%; AUC [17]: 22; ED50 [18]: 5.4 mg/kg; ED50 [19]: 22 mg/kg; dose excreted at 24 h [20]: 16%; ED50 [21]: 12.5 mg/kg; Cmax [22]: 9000 ng/mL; half-life [23]: 73 min; half-life [24]: 65 min
3 | CC(C)(C)n1cc(C(=O)O)c(=O)c2cc(F)c(N3C[C@H]4C[C@]3(C)CN4)nc21.Cl | 2 µg/mL | 1 µg/mL | 0.25 µg/mL | 4 µg/mL | 0.25 µg/mL | 16 µg/mL | 1 µg/mL | 0.5 µg/mL | 64 µg/mL | 2 µg/mL | 2 µg/mL | 6 µg/mL | -0.37 | –
4 | Cc1c(F)c(N2[C@H]3CN[C@H](C3)[C@@H]2C)nc2c1c(=O)c(C(=O)O)cn2C1CC1.Cl | 0.13 µg/mL | 0.016 µg/mL | 0.016 µg/mL | 0.25 µg/mL | 0.016 µg/mL | 0.25 µg/mL | 0.13 µg/mL | 0.016 µg/mL | 4 µg/mL | 0.13 µg/mL | 0.13 µg/mL | 70 µg/mL | 0.73 | –
5 | C[C@H]1N[C@@H]2C[C@H]1N(c1nc3c(cc1F)c(=O)c(C(=O)O)cn3C(C)(C)C)C2.Cl | 1 µg/mL | 0.06 µg/mL | 0.06 µg/mL | 2 µg/mL | 0.03 µg/mL | 1 µg/mL | 0.25 µg/mL | 0.5 µg/mL | 4 µg/mL | 0.5 µg/mL | 0.5 µg/mL | 6340 µg/mL | -0.12 | Cmax [14]: 23000 ng/mL; AUC [15]: 8; dose excreted at 24 h [16]: 18%; AUC [17]: 18; ED50 [18]: 16.5 mg/kg; ED50 [19]: 9.5 mg/kg; dose excreted at 24 h [20]: 17%; ED50 [21]: 12.5 mg/kg; Cmax [22]: 11000 ng/mL; half-life [23]: 45 min; half-life [24]: 44 min
6 | Cc1c(F)c(N2C[C@H]3C[C@@H]2[C@H](C)N3)nc2c1c(=O)c(C(=O)O)cn2C(C)(C)C.Cl | 0.5 µg/mL | 0.016 µg/mL | 0.03 µg/mL | 2 µg/mL | 0.03 µg/mL | 0.5 µg/mL | 0.5 µg/mL | 0.13 µg/mL | 16 µg/mL | 0.5 µg/mL | 0.5 µg/mL | 250 µg/mL | 1.3 | –
7 | Cc1c(F)c(N2[C@H]3CN[C@H](C3)[C@H]2C)nc2c1c(=O)c(C(=O)O)cn2C1CC1.Cl | 0.25 µg/mL | 0.03 µg/mL | 0.06 µg/mL | 2 µg/mL | 0.016 µg/mL | 0.025 µg/mL | 0.5 µg/mL | 0.06 µg/mL | 8 µg/mL | 0.25 µg/mL | 0.5 µg/mL | 220 µg/mL | 1 | –
8 | CC(C)(C)n1cc(C(=O)O)c(=O)c2cc(F)c(N3C[C@@]4(C)C[C@@H]3CN4)nc21.Cl | 0.25 µg/mL | 0.03 µg/mL | 0.016 µg/mL | 1 µg/mL | 0.03 µg/mL | 1 µg/mL | 0.13 µg/mL | 0.03 µg/mL | 16 µg/mL | 0.5 µg/mL | 0.25 µg/mL | 67 µg/mL | 0.02 | –
